Test results published in US9546129B2, “DTPA prodrugs, compositions thereof, and methods of using the same” (priority 2012, dated 2017).
In brackets after ≈: the same amount, converted by molar mass. Read-outs that look alike come from different tables or passages of the source.

How the values were obtained:
[1] = tested on: Chinese hamster ovary (CHO) cells; test: In vitro chromosomal aberration assay; assay type: cell-based
Experimental: The objective of this in vitro assay was to evaluate the ability of C2E2 to induce chromosomal aberrations in cultured Chinese hamster ovary (CHO) cells with and without an exogenous metabolic activation system.
C2E2 was prepared in cell culture grade water (CCGW) and formed a colorless, transparent, solution. The C2E2 was from Lot 050 obtained using Method 2. Subsequent stocks were prepared by serial dilution in vehicle and all treatments were administered into 10 mL cultures in a volume of 10%. Vehicle control cultures were treated with 100 μL/mL per culture. The treatment periods were for 3 hours with and without metabolic activation or approximately 20 hours without metabolic activation.
In an initial chromosomal aberration assay (B1 test), C2E2 concentrations of 6.92, 9.89, 14.1, 20.2, 28.8, 41.2, 58.8, 84.0, 120, 172, 245, 350, and 500 μg/mL were tested in duplicate cultures in the 3- and 20-hour tests without S9 and in the 3-hour test with S9 metabolic activation. All cultures, under all test conditions, were harvested approximately 20 hours from the initiation of treatment. At culture termination, viable cells were counted and population doubling was calculated for measurement of cytotoxicity to support selection of dose levels for aberration analysis. Visual observations of cultures for general cell health and confluence were made prior to termination.

[2] = Stability of C2E2 in plasma (rat); assay type: in vitro ADME; details: 37° C., up to two hours
Experimental: Prior to the study, 975 μL of plasma (Rat, Beagle and Human) was preheated to 37° C. in Eppendorff tubes and the test compound (C2E2) was prepared in DI water (10 mg/mL). The C2E2 was from Lot 050 obtained using Method 2. To initiate the study, 25 μL of the C2E2 solution was added to the pre-heated plasma and briefly vortexed, to mix. At 0, 15, 30, 60 and 120 minutes a 100 μL sample of plasma was taken, an equal volume of cold acetonitrile was added and mixed to precipitate plasma proteins. Samples were centrifuged at 4° C. and 14,000×g for 10 minutes to remove precipitated proteins, the supernatant was collected and the C2E2 concentration determined by HPLC-CAD. All conditions were repeated in triplicate.
HPLC Detection Methods: C2E2 analysis was performed on a prominence HPLC (Shimadzu Corporation, Kyoto, Japan) equipped with a Corona Ultra charged […] detector (CAD) (Thermo scientific, Sunnyvale, Calif.). […]
The gradient is 0.01-34.99 min: 22% B; 35.00-44.99 min: 33% B; 45.00-60.00 min: 38% B. The flow rate is 1.0 mL/min, a Thermo Hypersil ODS column (150 mm 4.6 mm i.d. with 5.0 μm particles) will be used, injection volume will be 10 μL and column oven temperature maintained at 25° C. […] The limit of quantification is 0.35 μg/mL. […]

[3] = Single dose toxicology study in rats (UNC-11.240-RMTD); assay type: in vivo; details: rat
[4] = tested on: Escherichia coli (E. coli) strain WP2uvrA; test: Bacterial Reverse Mutation Assay (E. coli); assay type: cell-based; details: for Dose level with reductions in mean numbers of revertant colonies (toxicity): WP2uvrA
Experimental: The objective of this study was to evaluate C2E2 for its ability to induce reverse mutations at the histidine locus in Salmonella typhimurium tester strains TA98, TA100, TA1535, and TA1537, and at the tryptophan locus of Escherichia coli (E. coli) strain WP2uvrA in the presence or absence of an exogenous mammalian metabolic activation system (S9).
C2E2 was evaluated in an initial mutagenicity assay in all five tester strains at dose levels of 5.00, 16.0, 50.0, 160, 500, 1600, and 5000 μg/plate with and without S9. C2E2 was from Lot 050 obtained using Method 2. C2E2 was prepared in Cell Culture Grade Water vehicle and formed a transparent colorless solution. […] The reductions in the numbers of revertant colonies and the enhanced background lawn growth are indicative of C2E2 treatment-related toxicity. With exception to the enhanced background lawn in TA1537 without S9, all other background lawns in all strains, with and without S9, were normal indicating there was appropriate bacterial growth during treatment to express a mutagenic event. There were no relevant increases in the numbers of revertant colonies observed at any dose level with any strain in the absence or presence of S9 metabolic activation.

[5] = Precipitation / solubility study in pH 3.0 buffer; assay type: physicochemical
Experimental: A precipitation study was performed to estimate the concentration at which no precipitation occurs. Initially, 12 samples of C2E2 were prepared at concentrations ranging from 40-150 mg/mL in pH 3.0 buffer in steps of 10 mg/mL. The solutions were left to stir until precipitation occurred.
Three samples of C2E2 at 60, 70 and 100 mg/mL in pH 3.0 buffer were prepared and stirred at room temperature. At 0.083, […], 1, 2, 4, 6, 20, 24 and 44 hours 0.5 mL samples were withdrawn centrifuged at 14,000×g and the concentration of supernatant measured by HPLC-CAD. At each time-point the pH of the supernatant was also measured.

Structure (SMILES): CCOC(=O)CN(CCN(CCN(CC(=O)O)CC(=O)OCC)CC(=O)O)CC(=O)O [C2E2, 6,9-bis(carboxymethyl)-3-(2-ethoxy-2-oxoethyl)-11-oxo-12-oxa-3,6,9-triazatetradecan-1-oic acid]
- Reduction in the mitotic index compared to vehicle control ([1]; 14.1 μg/mL, 20-hour test without S9): 53%
- Cytotoxicity (observation) ([1]; 3-hour treatment with and without S9, up to 500 μg/mL): no relevant cytotoxicity
- Induction of chromosomal aberrations ([1]; with and without S9, up to cytotoxicity limiting dose levels and 500 μg/mL): negative
- Metabolism in plasma (observation) [2]: minimal or not detected
- Maximum tolerated single dose [3]: 2000 mg/kg
- Dose level with reductions in mean numbers of revertant colonies (toxicity) ([4]; with S9): ≥ 500 μg/plate
- Dose level with reductions in mean numbers of revertant colonies (toxicity) ([4]; without S9): 5000 μg/plate
- Mutagenicity (reverse mutations at the tryptophan locus) ([4]; up to 5000 μg/plate, with and without S9): negative
- Time of sudden precipitation from supersaturated solution ([5]; 100 mg/ml in pH 3.0 buffer, stirred at room temperature): 20 to 24 h
- solubility ([5]; Lot 050, solutions at this concentration precipitated over time, read-out: Solubility, initially determined): 100 mg/mL (≈ 222 mM)
- solubility ([5]; aqueous buffer, thermodynamic from solid, pH 3.0 buffer, room temperature, read-out: Solubility at pH 3.0): 60 to 70 mg/mL (≈ 133 to 156 mM)
- C2E2 concentration above which precipitation was observed ([5]; pH 3.0 buffer, 24 hours stirring then 48 hours standing at room temperature): above 60 mg/mL
- C2E2 concentration above which precipitation was observed ([5]; pH 3.0 buffer, after 24 hours stirring): above 90 mg/mL
